Laboratory results from US20260234188A1, “CHEMOKINE-BINDING PEPTIDES” (Oxford University Innovation Limited, priority 2022, published 2026).
“Also recorded” adds a separate entry of the source. Ends that are not written are not given here.

Tests used:
CC and CXC chemokines = assay: Chemokine-induced cell migration assays, pooled over chemokines (meta-analysis); format: cell-based, human; conditions: single HD2 mutations; nine CC and six CXC chemokines
Description: FIG. 16. Effect of HD2 alanine mutations on chemotaxis. […] All experiments were performed as three technical and three biological replicates, and individual data points are indicated, and coloured by the chemokine used. Statistically significant differences (compared to control, coloured blue), using Dunnett's test with correction for multiple comparisons, are indicated by asterisks: ****=P≤0.0001, ***=P≤0.001, **=P≤0.01, *=P≤[…] observations per group (three technical and three biological replicates for each chemokine). FIG. 16B, Faceted plots of change in median normalised cell count between alanine mutant and wild-type HD2 peptide obtained in cell migration assays (Y-axis, Δmedian normalised cell count) versus alanine mutated residue (X-axis). Chemokines used for each experiment are indicated in the strip to the right of each plot. Statistically significant differences compared to parental HD2 are shown as red dots. […] Scatterplot of Δmedian normalised cell count (Y-axis, obtained in cell migration assays) versus Δlog 2 E (obtained in phage-display experiments) for peptide:chemokine pairs. Individual data points indicate peptide chemokine pairs for which both cell migration and Δlog 2 E were available. Linear regression plot with 95% confidence interval, Spearman correlation coefficient (R) and statistical significance (p) are shown.
FIG. 19. […] All experiments were performed as at least three technical and three biological replicates, and individual data points are indicated, and coloured by the chemokine used, for all chemokines studied (n=16 chemokines). Statistically significant differences (compared to control, coloured blue), using Dunnett's test with correction for multiple comparisons, are indicated by asterisks: ****=P≤0.0001, ***=P≤0.001, **=P≤0.01, *=P≤0.05.
(§1) Briefly, cell migration assays use THP1 cells (human monocyte) and primary human buffy coat white cells (consisting of neutrophil granulocytes, monocytes, and lymphocytes), and activated T-cells. THP1 cells and primary monocytes respond to CCL2, CCL3, CCL5, CCL8 and CXCL4, granulocytes to CXCL1 and CXCL8, activated T-cells to CXCL9/10/11. Assays are performed in 96-well Boyden chambers, and migrated cells counted and characterized using and ATTUNE Flow Cytometer as described. Triplicate assays are performed at the EC80 dose of each chemokine at 10 μM peptide concentration.
(§2) The J:CXCR1 cell line was generated by transfecting Jurkat cells by electroporation with PvuI-linearized plasmid D1398 and selecting with blasticidin (Sigma-Aldrich, Cat #203350, […]). […] J:CXCR1 cells were cultured in RPMI-1640 media (Gibco), supplemented with 10% FBS and 5 mM L-Glutamine with blasticidin. For J:CXCR1 migration assays, 300,000 cells/well were added to the top chamber of a 3 μm Transwell insert (Corning) in 50 μL of migration media (RPMI-1640, 0.5% FBS, 4 mM L-Glutamine, 0.05% DMSO). The bottom chamber contained 150 μL of chemokine, with or without peptide. Cells were migrated at 37° C. in 5% CO2 for 4 hours. The plate was incubated on a shaking platform for 10 minutes, 800 rpm, at 37° C., and 150 μL from the bottom of the plate transferred into a U-bottom plate containing 50 μL of migration media.

[1] = tested on: panel of 24 biotinylated chemokines; assay: Phage-display screen of HD2 NNK saturation mutagenesis library; format: binding, human; conditions: for Chemokines Bound log2E 1-5 / Chemokines Bound log2E > 5: HD2 saturation mutants, chemokines on streptavidin beads, UniProt entry names
Excerpt: (§3) FIG. 7. Exemplar results from phage display screens using saturation mutagenesis. A phage-display library was constructed using the HD2 sequence, replacing each residue encoding codon with the degenerate sequence NNK. The 16 degenerate sequences (which also encoded the parental HD2 sequence) were pooled and cloned into display phage. […] Exemplar peptides were selected such that log 2 E for at least one chemokine was greater than 5, and log 2 E for binding to control (CO5, was less than zero). […] The fold enrichment of parental HD2 is also indicated.
as §3, with “A” for “FIG. 7. Exemplar results from phage display screens using saturation mutagenesis. A”
A molecular level understanding of binding mechanism is needed for development of peptides as therapeutics and is usually obtained from structural analyses. As HD2 binds many chemokines this becomes a challenging task, and we explored if we could elucidate this using phage display mutagenesis. The role of each residue in HD2 for binding was examined in phage-display. A library of HD2 mutations that had NNK substituted at each residue and performed phage-display selection against a panel of 24 biotinylated chemokines, in parallel, as described in Example 7. This strategy allowed us to evaluate the impact not only of Ala substitutions, but also conservative, hydrophilic and hydrophobic substitutions, and compare with binding of parental HD2 which is also included in the library. Ala substitution removes side-chains beyond the β-carbon and can be used to infer the role of side-chain functional groups without affecting conformational flexibility of the backbone. […] These residues are within the two motifs identified previously. Other notable residues identified were Y8 and P10. We next judged the impact of Ala mutation by calculating the change in log 2 E (Δlog 2 E) between the mutant and parental HD2. A positive value of Δlog 2 E indicates increased binding, and a negative value decreased binding compared to parental HD2. […] As may be seen, the log 2 E for the parental HD2 was ~0 in these analyses indicating lack of enrichment.
Oligonucleotide pools were amplified using primers: oligo_fwd: 5′-[…] and oligo_rev2: 5′-tcgtcaccctcggcgcctcctcoggatcctccacc. Oligonucleotide PCR products were cloned into plasmid prSTOP4Nsi using NEB Builder HiFi Assembly following instructions of the manufacturer. The vector pool was used to transform electrocompetent Invitrogen ElectroMAX™ DH5α-E™ cells. Plasmid DNA was harvested by MaxiPrep (GeneJet Plasmid Maxiprep Kit) and was transformed into SS320 phage display electrocompetent cells (Lucigen), following the manufacturer's protocol, resuspended in 950 μL recovery media for each electroporation, transferred to 50 mL Falcon tubes, 100 μL 1011 CFU/mL M13KO7 helper phage (NEB) added and shaken at 37° C., 220 RPM for 1 h. 1 mL recovery culture was added to 2YT medium containing +50 ug/mL carbenicillin and 25 ug/mL kanamycin, and grown overnight at 37C, 220 rpm. Phage was precipitated from the culture supernatant by adding 22.5 mL of supernatant to 4.5 mL 20% PEG 8000/2.5 M NaCl, incubating on ice for 30 min, and centrifuging at 10,000 RPM, 4° C. for 10 min, and resuspending phage in 1 ml of PBT, followed by centrifugation at 13000 RPM, 4° C., for 10 min. […]

[2] = tested on: panel of up to 42 human chemokines; assay: Phage-display next generation sequencing screen of overlapping hexadecapeptide libraries, chemokines displayed on streptavidin beads; format: binding; conditions: log2E greater than 5, chemokines named by first part of UniProt Entry Name, peptides binding complement C5a (control) excluded;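 further: chemokine listed when log2 fold enrichment exceeds 5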
Procedure, shortened: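 Phage-display libraries of 55662 overlapping hexadecapeptides from tick and viral chemokine-binding proteins, human chemokines and chemokine receptors screened against up to 42 human chemokines, with hits found by next-generation sequencing. Peptides mapped to parent-protein position with log2 fold enrichment; regions of interest where cumulative residue log2 E exceeds the 95% upper CI of the protein median.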

CCL8 = molecular target: T1, CCL8 (Homo sapiens, UniProt P80075); assay: cell-based; conditions: for inhibition of cell migration: peptide 10 μM, chemokine at EC80, versus scrambled control HD2SCR
T1 construct: purchased Peprotech
T1 sequence (P80075 24-99): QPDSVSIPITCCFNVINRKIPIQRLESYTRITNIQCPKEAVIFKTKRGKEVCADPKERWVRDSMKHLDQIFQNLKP
Description: (§4) FIG. 2. […] BK1.2 is described in (Darlot, 2020). […] Chemokines used are indicated by the name, followed in parenthesis by the supplier code (P in supplier code indicates Peprotech). […] All experiments were performed at EC80 doses of indicated chemokine. Data are shown as box-whisker plots of three technical and three biological replicates. Statistically significant differences (compared to control, indicated by #), using Dunnett's test with correction for multiple comparisons, are indicated by asterisks: ****=P≤0.0001, ***=P≤0.001, **=P≤0.01, *=P≤0.05.
FIG. 3. […] Chemokines used are indicated by the name, followed in parenthesis by the supplier code (P in supplier code indicates Peprotech). […] All experiments were performed at EC80 doses of indicated chemokine.
as §1
as §2, with “The plate was incubated on a shaking platform for 10 minutes, 800 rpm, at 37° C., and 150 μL from the bottom of the plate transferred into a U-bottom plate containing 50 μL of migration media.” left out

CXCL6 = molecular target: T2, CXCL6 (Homo sapiens, UniProt P80162); assay: cell-based; conditions: value in parentheses restating the molar figure
T2 sequence (P80162 38-114): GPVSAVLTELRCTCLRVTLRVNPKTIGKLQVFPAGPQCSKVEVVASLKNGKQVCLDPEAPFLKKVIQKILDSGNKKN
Description: FIG. 11. […] Technical replicates are shown as individual data points. […] The response curve (solid blue line) and its 95% confidence interval (grey ribbon) were calculated using a 4-parameter log-logistic plot.
(§5) The J:CXCR1 cell line was generated by transfecting Jurkat cells by electroporation with PvuI-linearized plasmid D1398 and selecting with blasticidin (Sigma-Aldrich, Cat #203350, […]). […] J:CXCR1 cells were cultured in RPMI-1640 media (Gibco), supplemented with 10% FBS and 5 mM L-Glutamine with blasticidin. For J:CXCR1 migration assays, 300,000 cells/well were added to the top chamber of a 3 μm Transwell insert (Corning) in 50 μL of migration media (RPMI-1640, 0.5% FBS, 4 mM L-Glutamine, 0.05% DMSO). The bottom chamber contained 150 μL of chemokine, with or without peptide. Cells were migrated at 37° C. in 5% CO2 for 4 hours. The plate was incubated on a shaking platform for 10 minutes, 800 rpm, at 37° C., and 150 μL from the bottom of the plate transferred into a U-bottom plate containing 50 μL of migration media. Cell counts were determined by Attune NxT Flow Cytometer Plate Reader (ThermoFisher), based on cell size parameters FSC-H/SSC-H. Experiments were performed in 3 technical and 3 biological replicates. THP-1 migration assays were carried out using methods known in the art. Activated T-cell assays were carried out using methods known in the art, with the following modifications in the isolation process. Peripheral blood cells were obtained from leucocyte cones (NHS Blood Transfusion Services), following which, T-cells were isolated using two rounds of human CD8+ T-cell isolation kit (480011, BioLegend). At day 10 after activation, T-cells were frozen at 20 E6 cells/ml in TexMACS medium supplemented with 10% DMSO (D2650, Sigma) in liquid nitrogen. Prior to use, activated T-cells were recovered for 24 hours in TexMACs medium at 0.3 E6 cells/ml and incubated at 37° C. in 5% CO2. Chemokine sources are described in Supplementary information Table 3. Statistical significances between control experimental groups was evaluated using Dunnett's test. IC50 experiments were performed at the EC80 dose of chemokine. EC80 was calculated by fitting a chemokine dose-response curve with 3 parameters (fixing the top to 100%). IC50 was calculated by fitting an inhibitor response curve with 4 parameters.
(§6) Migration assays using THP1, activated T-cell (ATC) and J:CXCR1 (Jurkat cells stably transfected with CXCR1 receptor) were performed as described previously. IC50 experiments were performed at the EC80 dose of chemokine. EC80 was calculated by fitting a chemokine dose-response curve with 3 parameters (fixing the top to 100%). IC50 was calculated by fitting an inhibitor response curve with 4 parameters. R-packages used were ggupset_0.3.0, DescTools_0.99.44, and drc_3.0-1.

CXCL9 = molecular target: T3, CXCL9 (Homo sapiens, UniProt Q07325); assay: CXCL9-induced activated T-cell migration, transwell assay; format: cell-based; conditions: HD2 mutant peptides 10 μM, chemokine at EC80
T3 construct: purchased Peprotech
T3 sequence (Q07325 23-125): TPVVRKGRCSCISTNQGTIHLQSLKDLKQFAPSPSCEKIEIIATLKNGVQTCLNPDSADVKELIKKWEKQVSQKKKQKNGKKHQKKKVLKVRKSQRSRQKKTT
Description: as §4, §1, §5

CCL21 = molecular target: T4, CCL21 (Homo sapiens, UniProt O00585); assay: CCL21-induced cell migration assay; format: cell-based; conditions: HD2 mutant peptides 10 μM, chemokine at EC80
T4 sequence (O00585 24-134): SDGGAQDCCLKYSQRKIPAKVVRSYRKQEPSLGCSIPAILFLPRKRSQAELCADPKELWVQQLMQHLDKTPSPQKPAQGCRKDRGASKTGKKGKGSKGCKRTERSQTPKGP
Description: FIGS. 24 and 25. Effect of exemplar mutant HD2 peptides on chemotaxis. Box-whisker plots showing the effect of the exemplar mutant HD2 peptides on cell migration induced by indicated human chemokines. All experiments were performed as at least three technical and between one to three biological replicates, and individual data points are indicated. […] Chemokine and cell type names are indicated. HD2SCR is a scrambled version of HD2 used as negative control. All peptides were at 10 μM final concentration and chemokines at EC80 doses. Statistically significant differences (compared to control, coloured blue), using Dunnett's test with correction for multiple comparisons, are indicated by asterisks: ****=P≤0.0001, ***=P≤0.001, **=P≤0.01, *=P≤0.05.
as §5, §6

| Substance | Chemokines Bound log2E 1-5 [1] | Chemokines Bound log2E > 5 [1] | mean log 2 E compared to parental HD2 ([1]; over CC chemokines) | mean log 2 E compared to parental HD2 ([1]; over all chemokines) | Chemokines Bound [2] | inhibition of cell migration (CCL8) | also measured |
| --- | --- | --- | --- | --- | --- | --- | --- |
| EEDDYDAYAPLTCYFT [HD2_D6] | CCL15, CCL17, CCL18, CCL19,; also recorded: CCL22, CCL28, CCL3, CCL4,; also recorded: CCL5, CCL8, X3CL1, CXL10,; also recorded: CXL11, CXL14, IL8 | CCL1, CCL11,; also recorded: CCL2, SDF1,; also recorded: CXL13 | significant improvement | significant improvement | – | – | chemotaxis inhibition compared with HD2, meta-analysis (CC and CXC chemokines): did not improve chemotaxis in any assay |
| DEDYEDFFKPVTCYFA [HD540] | – | – | – | – | CCL18, CCL22,; also recorded: CCL5, CCL8 | inhibition | – |
| EDEDYEDFFKPVTCYF [HD845] | – | – | – | – | CCL18, CCL22,; also recorded: CCL5, CCL8 | inhibition | – |
| EEDDYTAYAPLTCYFT-NH2 [HD2, EEDDYTAYAPLTCYFT] | – | – | – | – | – | – | IC50 (CCL8; value in parentheses restating the molar figure): 0.015 µM; IC50 (CXCL6): 140 µM |
| EEDDYTAYAPITCYFT [HD2_I11] | CCL1, CCL11, CCL17, CCL18,; also recorded: CCL19, CCL2, CCL22, CCL28,; also recorded: CCL3, CCL4, CCL5, CCL8, X3CL1,; also recorded: CXL10, CXL11, SDF1, CXL13, IL8 | CCL15 | significant improvement | significant improvement | – | – | chemotaxis compared with the parental HD2 peptide (CXCL9): significant reduction in chemotaxis; chemotaxis compared with the parental HD2 peptide (CCL21): significant reduction in chemotaxis |
